{"source": "patent US20070299109A1", "about": "“Dimeric Compounds Of Piperidine, Piperazine Or Morpholine Or Their 7-Membered Analogs Suitable For The Treatment Of Neurodegenerative Disorders” (priority 2004, published 2007)", "tested_on": "chicken dorsal root ganglion neurons", "assay": "Neuronal viability assay (calcein-AM) in primary culture of chicken dorsal root ganglion neurons", "format": "cell-based, White Leghorn chick embryos", "settings": "Gallus gallus, DRG neuron, 48 h; survival of chick DRG neurons after two days of incubation; 0% = no neurotrophic factor, 100% = 10 ng/ml NGF; read-out: [C1] DRG assay SCORE (pIC50 value scored) (converted)", "text": "This assay is based on a fluorimetric Calcein-AM measurement and addresses the functional response of neurons as a quantitative measure of survival.\nDorsal root ganglia were dissected from White Leghorn chick embryos at embryonic day 10 as described previously (Skaper S. D. and Varon S. (1986) Brain Research 389, 39-46). The ganglia were trypsinised and dissociated by mild trituration in a HBSS buffer supplemented with 0.6% glucose and 0.08% trypsin. To remove non-neuronal cells by differential attachment to culture plastic, the ganglionic cell suspension was lo diluted to 2.5×10^5 cells/ml and seeded on tissue culture plastic dishes at 10 ml per 100 mm dish. After 2 h preplating, unattached neurons were collected and resuspended into Basal Eagle Medium containing 10% FCS. To remove cell aggregates, the cell suspension was passed through a nylon mesh (50 μM) pore diameter. Neuron-enriched cell suspension was plated at 5×10^4 cells/ml into poly-L-ornithine (100 μg/ml) and laminine (1 μg/ml) coated multiwell 96 plates. Compounds were dissolved in dimethyl sulfoxide and kept as a stock at −20° C. NGF and compounds were diluted in the culture medium and added to the cells immediately after plating. The final concentration of dimethyl sulfoxide in the test medium was 0.1%. After two days of incubation, neuronal viability was assessed with calcein-AM.\nNeuronal viability assay using calcein AM was performed as previously described (Bozyczko-Coyne D., McKenna B. W., Connors T. J., and Neff N. T. (1993) Journal of Neuroscience Methods 50, 205-216). For the assay, calcein-AM was diluted in PBS to the final concentration (1 μM). […] Following the incubation, reading was done in a Cytofluor II at an excitation wavelength of 485 nm and an emission wavelength of 530 nm. […]\nThe drugs to be tested were taken from a stock solution and tested at a final concentration ranging from […] to 3.10^−9M. From the thus obtained dose response curves, the pIC50 value was calculated and scored as follows; Score 1=pIC50 value<6, Score 2=pIC50 value in the range of 6 to 8, Score 3=pIC50 value>8.", "data": [{"compound": "CN(c1nc2ccc(F)cc2s1)C1CCN(C(=O)CCCCCCCC(=O)N2CCC(N(C)c3nc4ccc(F)cc4s3)CC2)CC1", "note": "[Compound 5]", "values": [{"measurement": "IC50", "result": "10 to 1000", "unit": "nM"}]}, {"compound": "CN(c1nc2ccccc2s1)C1CCN(C(=O)NC2CCC(CC3CCC(NC(=O)N4CCC(N(C)c5nc6ccccc6s5)CC4)CC3)CC2)CC1", "note": "(stereo not drawn) [Compound 9]", "values": [{"measurement": "IC50", "result": "10 to 1000", "unit": "nM"}]}, {"compound": "c1ccc2c(c1)CCN2C1CCN(CCCN2CCC(N3CCc4ccccc43)CC2)CC1", "note": "[Compound 47]", "values": [{"measurement": "IC50", "result": "> 1000", "unit": "nM"}]}]}
